Data reported in ChEMBL document CHEMBL1201862, “PubChem BioAssay data set” (2004).
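A five-concentration, 48-hour dose response in 96-well plates underlies each endpoint, interpolated linearly between surrounding concentrations. At the GI50, growth is halved.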 Active and inactive are the calls of the source. Cut-off read from the data, not from the text of the source: active = GI50 up to about 1.1 µM and inactive = higher.

Legend:
Assay in all cases: NCI tumour cell line growth inhibition, 48 h
786-0 = system: 786-0
BT-549 = system: BT-549
HCT-116 = system: HCT-116
HL-60 = system: HL-60
M14 = system: M14
MDA-MB-231 = system: MDA-MB-231
MDA-MB-435 = system: MDA-MB-435
OVCAR-3 = system: OVCAR-3
OVCAR-4 = system: OVCAR-4
OVCAR-5 = system: OVCAR-5
RPMI-8226 = system: RPMI-8226
SF-268 = system: SF-268
SF-295 = system: SF-295
SK-MEL-28 = system: SK-MEL-28
SK-MEL-2 = system: SK-MEL-2
SN12C = system: SN12C
SR = system: SR
SW-620 = system: SW-620
TK-10 = system: TK-10
U-251 = system: U-251

SMILES | GI50 (786-0) | GI50 (BT-549) | GI50 (HCT-116) | GI50 (HL-60) | GI50 (M14) | GI50 (MDA-MB-231) | GI50 (MDA-MB-435) | GI50 (OVCAR-3) | GI50 (OVCAR-4) | GI50 (OVCAR-5) | GI50 (RPMI-8226) | GI50 (SF-268) | GI50 (SF-295) | GI50 (SK-MEL-28) | GI50 (SK-MEL-2) | GI50 (SN12C) | GI50 (SR) | GI50 (SW-620) | GI50 (TK-10) | GI50 (U-251)
Cc1c2ccccc2c(CSC(=N)N)c2ccccc12 | 0.143 µM (active) | 0.902 µM (active) | 0.189 µM (active) | 0.111 µM (active) | 0.211 µM (active) | 0.276 µM (active) | 0.181 µM (active) | 0.264 µM (active) | 0.174 µM (active) | 0.326 µM (active) | 0.0841 µM (active) | 0.0738 µM (active) | 0.271 µM (active) | 0.27 µM (active) | 0.192 µM (active) | 0.152 µM (active) | 0.0194 µM (active) | 0.121 µM (active) | 0.222 µM (active) | 0.176 µM (active)
CCN(CC)C1Oc2cc3c(cc2C(c2cc(OC)c(OC)c(OC)c2)C1C)OCO3 (stereo not given) | 1.33 µM (inactive) | 7.1 µM (inactive) | 0.465 µM (active) | 0.242 µM (active) | 0.64 µM (active) | 3.15 µM (inactive) | 0.113 µM (active) | 0.387 µM (active) | 16.1 µM (inactive) | 2 µM (inactive) | 0.927 µM (active) | 3.61 µM (inactive) | 0.441 µM (active) | 0.719 µM (active) | 0.887 µM (active) | 1.52 µM (inactive) | 0.256 µM (active) | 0.531 µM (active) | 26.5 µM (inactive) | 0.6 µM (active)
CC1CC[C@@]2(OC1)OC1C[C@H]3[C@@H]4CC=C5CC(OC6OC(CO)C(OC7OC(CO)C(O)C(OC8OCC(O)C(O)C8O)C7OC7OC(CO)C(OC8OC(C)C(OC9OC(C)C(O)C(O)C9O)C(O)C8O)C(O)C7O)C(O)C6O)CCC5(C)[C@H]4CCC3(C)C1[C@@H]2C (stereo not given in full) | 2.37 µM (inactive) | 9.2 µM (inactive) | 8.47 µM (inactive) | 8.99 µM (inactive) | 4.28 µM (inactive) | 5.36 µM (inactive) | 9.06 µM (inactive) | 10.8 µM (inactive) | 4.21 µM (inactive) | 7.46 µM (inactive) | 10.8 µM (inactive) | 9.71 µM (inactive) | 6.71 µM (inactive) | 11.2 µM (inactive) | 6.71 µM (inactive) | 9.35 µM (inactive) | 0.495 µM (active) | 11.4 µM (inactive) | 8.59 µM (inactive) | 9.04 µM (inactive)
CC(=O)c1ccc2c3c1[C@@H]1O[C@@H]1c1cccc(c1-3)[C@@H]1O[C@H]21 | 5.6 µM (inactive) | 15.1 µM (inactive) | 4.54 µM (inactive) | 9.91 µM (inactive) | 6.85 µM (inactive) | 17.7 µM (inactive) | 6.92 µM (inactive) | 13.5 µM (inactive) | 13.6 µM (inactive) | 17.7 µM (inactive) | 5.05 µM (inactive) | 6.62 µM (inactive) | 15 µM (inactive) | 3.5 µM (inactive) | 14.1 µM (inactive) | 8.26 µM (inactive) | > 100 µM (inactive) | 2.54 µM (inactive) | 20.7 µM (inactive) | 6.62 µM (inactive)
CC(=O)/C=C1\Nc2ccccc2N\C1=C/C(C)=O | 18.5 µM (inactive) | 35 µM (inactive) | 16.9 µM (inactive) | 23.9 µM (inactive) | 21.6 µM (inactive) | 22 µM (inactive) | 26.4 µM (inactive) | 17.5 µM (inactive) | 19 µM (inactive) | 28.8 µM (inactive) | 19.5 µM (inactive) | 23.5 µM (inactive) | 26.5 µM (inactive) | 41.7 µM (inactive) | 20.6 µM (inactive) | 25.7 µM (inactive) | 25.1 µM (inactive) | 35.7 µM (inactive) | 19.4 µM (inactive) | 23.8 µM (inactive)
Oc1ccc(/C=C/c2cccc(/C=C/c3ccc(O)c(O)c3)n2)cc1O | 10.7 µM (inactive) | 10.9 µM (inactive) | 5.98 µM (inactive) | 2.82 µM (inactive) | 5.58 µM (inactive) | 25.5 µM (inactive) | 10.7 µM (inactive) | 4.05 µM (inactive) | 6.04 µM (inactive) | 9.95 µM (inactive) | 3.76 µM (inactive) | 10.7 µM (inactive) | 18.6 µM (inactive) | 14.2 µM (inactive) | 11.7 µM (inactive) | 8.87 µM (inactive) | 3.49 µM (inactive) | 7.05 µM (inactive) | 11.4 µM (inactive) | 3.85 µM (inactive)
CC(=O)Oc1c(-c2ccccc2)oc2ccccc12 | 4.02 µM (inactive) | 2.65 µM (inactive) | 1.66 µM (inactive) | 1.12 µM (inactive) | 2.02 µM (inactive) | 1.45 µM (inactive) | 2.43 µM (inactive) | 2.12 µM (inactive) | 3.19 µM (inactive) | 1.85 µM (inactive) | 0.813 µM (active) | 2.28 µM (inactive) | 0.946 µM (active) | 2.38 µM (inactive) | 1.8 µM (inactive) | 2.19 µM (inactive) | 0.394 µM (active) | 3.1 µM (inactive) | 3.73 µM (inactive) | 1.04 µM (active)
O=C1C=CC(=O)c2c1ccc1c3ccccc3n(CCCCCn3c4ccccc4c4ccc5c(c43)C(=O)C=CC5=O)c21 | 6.87 µM (inactive) | 32.4 µM (inactive) | 12.8 µM (inactive) | 0.875 µM (active) | 20.1 µM (inactive) | 21.2 µM (inactive) | 22 µM (inactive) | 17.9 µM (inactive) | > 10 µM (inactive) | > 49.5 µM (inactive) | 4.14 µM (inactive) | 15.7 µM (inactive) | > 100 µM (inactive) | 16.4 µM (inactive) | 23.3 µM (inactive) | 18.4 µM (inactive) | 1.9 µM (inactive) | 8.17 µM (inactive) | 12.4 µM (inactive) | 20 µM (inactive)
Cc1ccc2nc(CN3CCCCC3)cc(=O)n2c1 | > 100 µM (inactive) | > 100 µM (inactive) | > 100 µM (inactive) | > 100 µM (inactive) | > 100 µM (inactive) | > 100 µM (inactive) | > 100 µM (inactive) | > 100 µM (inactive) | > 100 µM (inactive) | > 100 µM (inactive) | > 100 µM (inactive) | > 100 µM (inactive) | > 100 µM (inactive) | > 100 µM (inactive) | > 100 µM (inactive) | > 100 µM (inactive) | > 100 µM (inactive) | > 100 µM (inactive) | > 100 µM (inactive) | > 100 µM (inactive)
O=C1C(=C(C(F)(F)Cl)C(F)(F)Cl)C2CCC1C2 (stereo not given) | 1.87 µM (inactive) | 1.58 µM (inactive) | 1.9 µM (inactive) | 0.238 µM (active) | 1.16 µM (inactive) | 1.56 µM (inactive) | 1.88 µM (inactive) | 2.45 µM (inactive) | 2.84 µM (inactive) | 2.96 µM (inactive) | 0.849 µM (active) | 2.41 µM (inactive) | 4.67 µM (inactive) | 1.93 µM (inactive) | 1.78 µM (inactive) | 1.97 µM (inactive) | 0.0655 µM (active) | 1.82 µM (inactive) | 1.77 µM (inactive) | 5.27 µM (inactive)
C=C1C(=O)OC2CC1C(O)C/C(C)=C/CC/C(C)=C/C(O)CC2C (stereo not given) | 1.53 µM (inactive) | 2.31 µM (inactive) | 1.45 µM (inactive) | 0.262 µM (active) | 2.51 µM (inactive) | 3.52 µM (inactive) | 2.85 µM (inactive) | 2.7 µM (inactive) | 2.45 µM (inactive) | 4.97 µM (inactive) | 1.32 µM (inactive) | 2.79 µM (inactive) | 13.3 µM (inactive) | 4.9 µM (inactive) | 3.4 µM (inactive) | 1.85 µM (inactive) | 0.52 µM (active) | 2 µM (inactive) | 2.05 µM (inactive) | 4.68 µM (inactive)
Cc1cccc(C)c1/N=N/c1ccc(O)c(CN(C)C)c1 | 43.9 µM (inactive) | 56.5 µM (inactive) | 68.7 µM (inactive) | 26.9 µM (inactive) | 24.7 µM (inactive) | > 100 µM (inactive) | 41.8 µM (inactive) | 45.3 µM (inactive) | 47.9 µM (inactive) | 28.3 µM (inactive) | 29 µM (inactive) | 47 µM (inactive) | 71.6 µM (inactive) | 20.7 µM (inactive) | 25.2 µM (inactive) | > 100 µM (inactive) | 34.4 µM (inactive) | 91.2 µM (inactive) | 59.6 µM (inactive) | > 100 µM (inactive)
CC(=O)Oc1ccc(-c2nnc(-c3ccc(OC(C)=O)cc3)nn2)cc1 | > 100 µM (inactive) | > 100 µM (inactive) | > 100 µM (inactive) | 29.8 µM (inactive) | > 100 µM (inactive) | > 100 µM (inactive) | > 100 µM (inactive) | > 100 µM (inactive) | > 100 µM (inactive) | > 100 µM (inactive) | > 100 µM (inactive) | > 100 µM (inactive) | > 100 µM (inactive) | > 100 µM (inactive) | > 100 µM (inactive) | > 100 µM (inactive) | 20.4 µM (inactive) | > 100 µM (inactive) | > 100 µM (inactive) | > 100 µM (inactive)
O=C1CC(c2ccccc2Cl)C2(C(=O)NC(=O)NC2=O)C(c2ccccc2Cl)C1 (stereo not given) | > 100 µM (inactive) | > 100 µM (inactive) | > 100 µM (inactive) | 80.4 µM (inactive) | > 100 µM (inactive) | > 100 µM (inactive) | 52.6 µM (inactive) | 32.6 µM (inactive) | > 100 µM (inactive) | > 100 µM (inactive) | 68.2 µM (inactive) | 39.4 µM (inactive) | > 100 µM (inactive) | > 100 µM (inactive) | 81.1 µM (inactive) | > 100 µM (inactive) | 58.1 µM (inactive) | > 100 µM (inactive) | > 100 µM (inactive) | > 100 µM (inactive)
